Test results reported in patent publication US10787490B2, “Peptide inhibitors of interleukin-23 receptor and their use to treat inflammatory diseases” (Protagonist Therapeutics, Inc., priority 2015, dated 2020).
Like-named read-outs stand apart in the source and are kept apart here. Where a SMILES comes first, the peptide text is derived from it. Bridges are numbered along the chain shown (N, C = ends). [ ]: non-standard residue; d: D form. 2Nal = N[C@@H](Cc1ccc2ccccc2c1)C(=O)O; AEF = NCCOc1ccc(C[C@H](N)C(=O)O)cc1; Pen = CC(C)(S)[C@H](N)C(=O)O; Thp = NC1(C(=O)O)CCOCC1

Columns and labels:
[1] = DTT stability assay (redox stability); type: in vitro ADME; details: half-life, 0.5 mM DTT, room temperature, numeric
[2] = biological target: human IL-23R (IL23R_huFC) (Homo sapiens, UniProt Q5VWK5); details: read-out: ELISA IL23R/IL23 in nMoles (IC50); non-cyclic peptides
human IL-23R (IL23R_huFC), sequence (Q5VWK5 24-354 limits assumed, looked up): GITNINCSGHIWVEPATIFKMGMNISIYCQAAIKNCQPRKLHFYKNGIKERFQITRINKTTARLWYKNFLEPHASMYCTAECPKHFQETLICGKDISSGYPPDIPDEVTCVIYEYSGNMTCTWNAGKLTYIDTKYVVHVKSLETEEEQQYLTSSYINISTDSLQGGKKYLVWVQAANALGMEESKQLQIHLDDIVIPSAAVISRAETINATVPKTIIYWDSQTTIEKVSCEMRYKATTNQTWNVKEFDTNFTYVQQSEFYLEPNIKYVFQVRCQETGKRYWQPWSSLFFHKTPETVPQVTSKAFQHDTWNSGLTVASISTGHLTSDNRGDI

[3] = tested on: Cyno IL-23R; type: binding
[4] = tested on: TNBS-induced acute colitis, Sprague-Dawley rats; assay: TNBS induced colitis in rat; type: in vivo
[5] = tested on: rat splenocytes; assay: Rat Splenocyte Assay (IL-17A); type: cell-based; details: IL-17A produced by activated splenocytes exposed to IL-23; read-out: Cell assay (nM) Rat (Spleen), IC50
Procedure: A new assay developed was the rat splenocyte assay.
Briefly, splenocytes freshly isolated from rat were seeded in 96-well tissue culture plates in complete medium containing IL-10. […] Changes in IL-17A levels in the supernatants were detected using an ELISA.

[6] = tested on: distal colon tissue of TNBS-exposed rats; assay: Biomarkers in distal colon of TNBS rats (ELISA); type: in vivo, rat; details: vs vehicle treated controls
Procedure: Levels of inflammatory markers were examined in the colons. The distal colon tissue samples, designated for protein expression analysis, were flash frozen after collection. For protein extraction, the samples were thawed, weighed and homogenized in the extraction buffer (PBS pH 7.2 supplemented with Protease Inhibitors, 3× volume:weight). The homogenates were centrifuged at 13 krpm at 4° C. for 15 minutes, a total of two times to remove the debris. The supernatants were saved in multiple aliquots in −80° C. and subsequently used for protein expression analysis on ELISA. The total protein in each sample was quantified using BCA assay.

[7] = tested on: DSS-induced colitis, Sprague Dawley rats; assay: Rat Colitis Model: 9 Days of 3% DSS-Containing Drinking Water; type: in vivo; details: 100 mg/kg PO, QD
[8] = tested on: IL-23R in human DB cells; assay: Schild analysis, Human DB Cell (pSTAT3); type: cell-based; details: 0.3-100 nM peptide
[9] = Stability in simulated gastric fluid (SGF); type: in vitro ADME; details: pig, simulated gastric fluid (SGF) with porcine pepsin, pH 2
[10] = Stability in simulated intestinal fluid (SIF); type: in vitro ADME; parameters: dose or concentration left out as unconfirmed; details: simulated intestinal fluid (SIF) with pancreatin, pH 6.8; read-out: Stability (t1/2, hr) SIF (converted)
[11] = read-out: Cross Reactivity (nM) ELISA cyno IL23R IL23

For `CC(=O)NC1CCSCC(C(=O)NC(Cc2ccc(OCCN)cc2)C(=O)NC(Cc2ccc3ccccc3c2)C(=O)NC2(C(=O)NC(CCC(=O)O)C(=O)NC(CC(N)=O)C(=O)NC(CC(N)=O)C(N)=O)CCOCC2)NC(=O)C(CCC(N)=O)NC(=O)C(Cc2c[nH]c3ccccc23)NC(=O)C(C(C)O)NC(=O)C(CCC(N)=O)NC1=O` (stereo not shown) [SEQ ID NO: 1290, Ac-cyclo[[Abu]-QTWQC]-[Phe[4-(2-aminoethoxy)]-[2-Nal]-[4-amino-4-carboxy-tetrahydropyran]-ENN-NH2], the “DTT Stability” value [1] was >120 min and the IC50 [2] was > 100 µM.
Compound Hy-CADWVCYWHTFG-NH2 [SEQ ID NO: 169] has an IC50 [3, 11] of 1000 to 10000 nM.
For “Ac-[Pen]-NTWQ-[Pen]-[Phe[4-(2-aminoethoxy)]-[2-Nal]-[4-amino-4-carboxy-tetrahydropyran]-[Lys(Ac)]—NN—NH2 [SEQ ID NO: 1185]”, the histopathology scores ([4]; Example 12) was “did not significantly reduce”, the colon macroscopic score ([4]; Example 12, vs vehicle) was “significantly reduced” and the weight loss ([4]; Example 12, Peptide 1185 37 mg/kg/day PO, anti-IL-23p19 4 mg/kg ip, prednisolone 10 mg/day P.O., vs vehicle) was “did not significantly prevent”. For the same compound, the IC50 ([3]; IL-23/IL-23R competitive binding, cyno, read-out: ELISA (nM) Cyno, IC50) was 3 nM, the IC50 [5] was 35 nM and the “IL-17A level in colon” value [6] was “did not significantly reduce”. For the same compound, the “IL-22 level in colon” value [6] was “did not significantly reduce” and the “MPO level in colon” value [6] was “did not significantly reduce”.
With `O=C(O)c1cc(/N=N/c2ccc(S(=O)(=O)Nc3ccccn3)cc2)ccc1O` [sulfasalazine] the “terminal ratio of colon weight:colon length” value ([7]; difference vs DSS alone) was “significant” and the “disease score (DAI)” value ([7]; from Day 5, vs DSS alone) was “attenuated”.
For “H-CSNWVCYWHTYG-NH2 (cysteine pairing not given here) [SEQ ID NO: 198]”, the IC50 [3, 11] was < 250 nM.
Compound `CC(=O)NCCCC[C@H](NC(=O)C1(NC(=O)[C@H](Cc2ccc3ccccc3c2)NC(=O)[C@H](Cc2ccc(OCCN)cc2)NC(=O)[C@H]2NC(=O)[C@H](CCC(N)=O)NC(=O)[C@H](Cc3c[nH]c4ccccc34)NC(=O)[C@H]([C@@H](C)O)NC(=O)[C@H](CC(N)=O)NC(=O)[C@@H](NC(C)=O)C(C)(C)SSC2(C)C)CCOCC1)C(=O)N[C@@H](CC(N)=O)C(=O)N[C@@H](CC(N)=O)C(=O)N[C@@H](CC(N)=O)C(N)=O` [SEQ ID NO: 1211, Ac-[Pen]-NTWQ-[Pen]-[Phe[4-(2-aminoethoxy)]-[2-Nal]-[4-amino-4-carboxy-tetrahydropyran]-[Lys(Ac)]-NNN-NH2] (Ac-[Pen]NTWQ[Pen][AEF][2Nal][Thp]K(Ac)NNN-NH2; disulfide 1-6) has a Schild slope [8] of 0.76.
With `CC(=O)N[C@@H]1CCSC[C@@H](C(=O)N[C@@H](Cc2ccc(OCCN)cc2)C(=O)N[C@@H](Cc2ccc3ccccc3c2)C(=O)NC2(C(=O)N[C@@H](CCC(=O)O)C(=O)N[C@@H](CC(N)=O)C(=O)N[C@@H](CC(N)=O)C(N)=O)CCOCC2)NC(=O)[C@H](CCC(N)=O)NC(=O)[C@H](Cc2c[nH]c3ccccc23)NC(=O)[C@H]([C@@H](C)O)NC(=O)[C@@H](CCC(N)=O)NC1=O` [SEQ ID NO: 980] the colon macroscopic score ([4]; Example 14, vs vehicle) was “significantly reduced”, the “sum of the histopathology score” value ([4]; Example 14, vs vehicle) was “significantly reduced” and the weight loss ([4]; Example 14, 37 mg/kg/day oral) was “prevented”. For the same compound, the half-life at 20 μM [9] was 10 h, the half-life [10] was 11 h and the “IL-22 level in colon” value [6] was “reduced”. The “MPO level in colon” value [6] was “reduced”.
